In PubChem BioAssay AID504335 (Southern Research Specialized Biocontainment Screening …, 2011):
Activity calls are given as the source filed them. How the calls were made is not given here.

system: not listed separately; assay: dose response, cytotoxicity control for M. tuberculosis inhibitor project, purified and synthesized compounds (AID 504335); settings: mammalian cell cytotoxicity, viability; at 100 µM (top of the series)

Row | SMILES | viability
1 | COC(=O)C(C)Oc1ccc(-c2nccc(-c3ccccn3)n2)cc1 (centres undefined) | 95.7% (inactive)
2 | COC(=O)CCc1nc2c(C#N)c(-c3ccc(Cl)cc3)ccn2n1 | 99.2% (inactive)
3 | CCOC(=O)COn1c2c(c3c4no[n+]([O-])c4ccc31)CCCC2 | 87.8% (inactive)
4 | COC(=O)C1CC(=O)N(c2ccc(OCc3ccccc3Cl)cc2)C1 (centres undefined) | 90.6% (inactive)
5 | CCOC(=O)COc1ccc(/C=C2\NC(=S)N(CC)C2=O)cc1 | 94.5% (inactive)
6 | O=C(/C=C\c1cccs1)N1CCN(Cc2ccc3c(c2)OCO3)CC1 | 87.7% (inactive)
7 | Cc1nc(SCC(=O)NC2CCCCC2)[nH]c(=O)c1C | 88.8% (inactive)
8 | CCc1ccc(/C=C2/C(=O)N(C)C(=S)N2CC(=O)OC)s1 | 92% (inactive)
9 | O=C(CSc1nc2ccccc2c(=O)[nH]1)NCc1ccc(Cl)cc1 | 83% (inactive)
10 | O=C(CSc1nc2ccccc2c(=O)[nH]1)NC1CCCCC1 | 81.8% (inactive)
11 | Cc1ccc(NC(=O)C2C3/C=C\CCCCC32)cc1C (centres undefined) | 87.6% (inactive)
12 | COc1cc(NC(=O)C/C(C)=N/NC(=O)c2ccccn2)c(OC)cc1Cl | 92.4% (inactive)

system: mammalian cell cytotoxicity, viability; assay: as above; settings: not given

Row | SMILES | CC50
13 | CCOC(=O)c1ccc(NC(=O)Cn2ncc(Cl)c(Cl)c2=O)cc1 | 7.71 µM
14 | Cc1cccc(/C=C/C(=O)c2ccc([N+](=O)[O-])o2)c1 | 20.2 µM
15 | CC(C)NC(=O)c1sc(=S)n2c1[nH]c(=O)c1ccc(C(=O)NCCc3ccc(Cl)cc3)cc12 | 99.9 µM
16 | CNc1nc(SCc2ccccc2Cl)nc2c1CCCC2 | 36 µM
17 | CC(=NCc1ccc2c(c1)OCO2)C1=C(O)c2ccccc2C1=O | > 100 µM (inactive)
18 | O=C(NCC(c1cccs1)N1CCOCC1)c1cc([N+](=O)[O-])cc([N+](=O)[O-])c1 (centres undefined) | 96.7 µM
19 | COC(=O)c1cc(=O)n(-c2ccc(F)cc2)c(=Nc2ccc(F)cc2)s1 | 25.7 µM
20 | CCC(C)Nc1ccc(NC(C)CC)cc1 (centres undefined) | 14.3 µM
21 | Cc1ccc2ccc3ccc(C)nc3c2n1 | 58.5 µM
22 | S=c1nc[nH]c2nc[nH]c12 | 38.7 µM
23 | Cc1ccc2c(c1)c(C1=c3ccccc3=NC1=O)c(O)n2C | 10.1 µM
24 | Oc1ccccc1/C=N/Nc1ccnc(SCc2ccccc2)n1 | 93.8 µM
